Reference: patent publication US8835646B2, “Organic compounds” (Novartis AG, priority 2005, dated 2014)
pIC50: −log10 of the molar value. Where two headings read alike, the source gives them in different places.

Key:
aldosterone synthase = target: T1, aldosterone synthase (Homo sapiens, UniProt P19099); test: cellular aldosterone production in NCI-H295R cells stimulated with Ang II (RIA/SPA); type: cell-based; conditions: human adrenocortical carcinoma NCI-H295R cells, 1 μM Ang II, 24 hr
T1 construct: host or cells: NCI-H295R
T1 sequence (P19099 25-503): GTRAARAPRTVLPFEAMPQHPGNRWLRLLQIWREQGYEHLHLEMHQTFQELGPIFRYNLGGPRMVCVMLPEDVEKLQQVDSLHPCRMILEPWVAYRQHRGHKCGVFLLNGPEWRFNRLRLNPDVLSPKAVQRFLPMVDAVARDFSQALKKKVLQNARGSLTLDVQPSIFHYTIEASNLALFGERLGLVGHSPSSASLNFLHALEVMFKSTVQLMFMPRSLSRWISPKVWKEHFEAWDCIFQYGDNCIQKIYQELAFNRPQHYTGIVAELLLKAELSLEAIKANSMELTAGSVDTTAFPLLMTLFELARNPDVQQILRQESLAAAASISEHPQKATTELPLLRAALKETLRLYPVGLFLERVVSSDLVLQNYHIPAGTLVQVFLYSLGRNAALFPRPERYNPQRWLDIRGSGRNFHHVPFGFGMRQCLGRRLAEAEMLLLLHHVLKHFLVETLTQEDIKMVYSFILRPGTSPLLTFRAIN
Excerpt: (§1) Human adrenocortical carcinoma NCl-H295R cell line is obtained from American Type Culture Collection (Manassas, Va.). Insulin/transferrin/selenium (ITS)-A supplement (100×), DMEM/F-12, antibiotic/antimycotic (100×), and fetal calf serum (FCS) are purchased from Gibco (Grand Island, N.Y.). Anti-mouse PVT scintillation proximity assay (SPA) beads and NBS 96-well plates are obtained from Amersham (Piscataway, N.J.) and Corning (Acton, Mass.), respectively. Solid black 96-well flat bottom plates are purchased from Costar (Corning, N.Y.). Aldosterone and angiotensin (Ang II) are purchased from Sigma (St. Louis, Mo.). D-[1,2,6,7-^3H(N)]aldosterone was acquired from PerkinElmer (Boston, Mass.). Nu-serum was a product of BD Biosciences (Franklin Lakes, N.J.). The NADPH regenerating system, dibenzylfluorescein (DBF), and human aromatase Supersomes® are obtained from Gentest (Woburn, Mass.).
For in vitro measurement of aldosterone activity, human adrenocortical carcinoma NCI-H295R cells are seeded in NBS 96-well plates at a density of 25,000 cells/well in 100 μl of a growth medium containing DMEM/F12 supplemented with 10% FCS, 2.5% Nu-serum, 1 μg ITS/ml, and 1× antibiotic/antimycotic. The medium is changed after culturing for 3 days at 37° C. under an atmosphere of 5% CO2/95% air. On the following day, cells are rinsed with 100 μl of DMEM/F12 and incubated with 100 μl of treatment medium containing 1 μM Ang II and a compound at different concentrations in quadruplicate wells at 37° C. for 24 hr. At the end of incubation, 50 μl of medium is withdrawn from each well for measurement of aldosterone production by an RIA using mouse anti-aldosterone monoclonal antibodies.
Measurement of aldosterone activity can also be performed using a 96-well plate format. Each test sample is incubated with 0.02 μCi of D-[1,2,6,7-^3H(N)]aldosterone and 0.3 μg of anti-aldosterone antibody in phosphate-buffered saline (PBS) containing 0.1% Triton X-100, 0.1% bovine serum albumin, and 12% glycerol in a total volume of 200 μl at room temperature for 1 hr. Anti-mouse PVT SPA beads (50 μl) are then added to each well and incubated overnight at room temperature prior to counting in a Microbeta plate counter. The amount of aldosterone in each sample is calculated by comparing with a standard curve generated using known quantities of the hormone.
(§2) Full concentration-response curves of the test compound are performed at least 3 times. The IC50 values are derived using a non-linear least squares curve-fitting program from Microsoft XLfit.

human aromatase = target: T2, human aromatase (Homo sapiens, UniProt P11511); test: human aromatase assay (Supersomes, DBF substrate, fluorescence); type: biochemical; conditions: for inhibition at 10 µM: 10000 nM
T2 construct: purchased Gentest (Woburn, Mass.)
T2 sequence (P11511 1-503): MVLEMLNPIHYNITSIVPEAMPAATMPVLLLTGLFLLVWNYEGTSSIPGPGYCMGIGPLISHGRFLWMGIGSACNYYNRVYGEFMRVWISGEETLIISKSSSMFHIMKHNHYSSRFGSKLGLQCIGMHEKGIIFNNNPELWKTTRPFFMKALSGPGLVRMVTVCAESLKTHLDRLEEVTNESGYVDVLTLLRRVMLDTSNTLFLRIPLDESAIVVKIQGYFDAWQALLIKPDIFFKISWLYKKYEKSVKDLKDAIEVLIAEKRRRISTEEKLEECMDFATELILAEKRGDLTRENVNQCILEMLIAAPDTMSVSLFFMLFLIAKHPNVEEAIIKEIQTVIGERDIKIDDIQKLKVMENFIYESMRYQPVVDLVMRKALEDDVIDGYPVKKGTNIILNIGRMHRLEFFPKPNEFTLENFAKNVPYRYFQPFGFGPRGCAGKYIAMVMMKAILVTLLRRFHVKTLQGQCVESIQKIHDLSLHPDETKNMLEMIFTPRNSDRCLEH
Excerpt: as §1
To measure aromatase activity, the human aromatase assay is performed in 96-well flat bottom plates according to a published protocol (Stresser et al, 2000) with minor modifications. Briefly, 10 μl of an NADPH regenerating system containing 2.6 mM NADP^+, 6.6 mM glucose 6-phosphate, 6.6 mM MgCl2, and 0.8 U/ml glucose-6-phosphate dehydrogenase in 50 mM potassium phosphate, pH 7.4, is pre-incubated with the test compound at a desired concentration at 30° C. for 10 min in a total volume of 100 μl. Afterwards, 4 pmol of human aromatase, 20 μg of control microsomal protein, and 4 μM DBF in 100 μl of 50 mM potassium phosphate, pH 7.4, is added to each well and incubated at 30° C. for 90 min. The reaction is terminated by the addition of 75 μl of 2 N NaOH to each well. After 2 hr, the product, fluorescein, is measured by a fluorimeter using excitation and emission wavelengths of 485 and 538 nm, respectively.
as §2

| Structure (SMILES) | pIC50 (aldosterone synthase) | inhibition at 10 µM (human aromatase) | % inhibition of aromatase @ 10000 nM (human aromatase) | % inhibition of aromatase @ 10000 nM (human aromatase; 10 µM) |
| --- | --- | --- | --- | --- |
| N#Cc1ccc([C@@H]2C[C@H](Cc3ccc(F)cc3)Cc3cncn32)c(F)c1 (relative stereo) [cis- and trans-3-Fluoro-4-[7-(4-fluorobenzyl)-5,6,7,8-tetrahydroimidazo[1,5-a]pyridin-5-yl]benzonitrile] | 8.15 | 100% |  |  |
| COc1cc(C#N)ccc1[C@@H]1C[C@@H](Cc2ccc(F)cc2)Cc2cncn21 (relative stereo) [trans-3-Methoxy-4-[7-(4-fluorobenzyl)-5,6,7,8-tetrahydroimidazo[1,5-a]pyridin-5-yl]benzonitrile] | 7.08 | 100% |  |  |
| Cc1cc(C#N)ccc1C1CCc2cncn21 (single isomer, unassigned) [4-(6,7-Dihydro-5H-pyrrolo[1,2-c]imidazol-5-yl)-3-methylbenzonitrile] |  | 96% | 96% |  |
| CC1CCCC(c2ccc(C#N)cc2-c2ccc(F)cc2)n2cncc21 (single isomer, unassigned) [4′-Fluoro-6-(9-methyl-6,7,8,9-tetrahydro-5H-imidazo[1,5-a]az] [4′-Fluoro-6-(9-methyl-6,7,8,9-tetrahydro-5H-imidazo[1,5-a]azepin-5-yl)biphenyl-3-carbonitrile] |  |  |  | 98% |
| CC1CCCC(c2ccc(C#N)cc2-c2ccc(F)cc2)n2cncc21 (single isomer, unassigned) [4′-Fluoro-6-(9-methyl-6,7,8,9-tetrahydro-5H-imidazo[1,5-a]azepin-5-yl)biphenyl-3-carbonitrile] |  | 81% |  |  |
| N#Cc1ccc(C2(C(=O)OCc3ccc(F)cc3)CCc3cncn32)c(Cl)c1 (single isomer, unassigned) [5-(2-Chloro-4-cyanophenyl)-6,7-dihydro-5H-pyrrolo[1,2-c]imid] [5-(2-Chloro-4-cyanophenyl)-6,7-dihydro-5H-pyrrolo[1,2-c]imidazole-5-carboxylic acid 4-fluorobenzyl ester] |  |  |  | 98% |
| N#Cc1ccc(C2(C(=O)OCc3ccc(F)cc3)CCc3cncn32)c(Cl)c1 (single isomer, unassigned) [5-(2-Chloro-4-cyanophenyl)-6,7-dihydro-5H-pyrrolo[1,2-c]imidazole-5-carboxylic acid 4-fluorobenzyl ester] |  | 91% |  |  |
| COc1ccc(CN(C)C(=O)C2(c3ccc(C#N)cc3Cl)CCc3cncn32)cc1 (single isomer, unassigned) [5-(2-Chloro-4-cyanophenyl)-6,7-dihydro-5H-pyrrolo[1,2-c]imidazole-5-carboxylic acid (4-methoxybenzyl)methylamide] |  | 98% |  |  |
| COc1ccc(CN(C)C(=O)C2(c3ccc(C#N)cc3Cl)CCc3cncn32)cc1 (single isomer, unassigned) [5-(2-chloro-4-cyanophenyl)-6,7-dihydro-5H-pyrrolo[1,2-c]imid] [5-(2-Chloro-4-cyanophenyl)-6,7-dihydro-5H-pyrrolo[1,2-c]imidazole-5-carboxylic acid (4-methoxybenzyl)methylamide] |  |  |  | 97% |
| N#Cc1ccc(C2CCCCc3cncn32)cc1Br (centres unmarked) [2-Bromo-4-(6,7,8,9-tetrahydro-5H-imidazo[1,5-a]azepin-5-yl)benzonitrile] | 7.64 | 100% |  |  |
| Cc1noc(C)c1-c1cc(C#N)ccc1C1CCCCc2cncn21 (centres unmarked) [3-(3,5-Dimethylisoxazol-4-yl)-4-(6,7,8,9-tetrahydro-5H-imidazo[1,5-a]azepin-5-yl)benzonitrile] | 7.40 | 59% |  |  |
| N#Cc1ccc(C2CCc3cncn32)c(N)c1 (centres unmarked) [3-Amino-4-(6,7-dihydro-5H-pyrrolo[1,2-c]imidazol-5-yl)benzonitrile] | 7.05 | 100% |  |  |
| N#Cc1ccc(C2CCCCc3cncn32)c(Cl)c1 (centres unmarked) [3-Chloro-4-(6,7,8,9-tetrahydro-5H-imidazo[1,5-a]azepin-5-yl)benzonitrile] | 7.32 | 100% |  |  |
| N#Cc1ccc(C2(C(=O)N3CCOCC3)CCc3cncn32)c(Cl)c1 (centres unmarked) [3-Chloro-4-[5-(morpholino-4-carbonyl)-6,7-dihydro-5H-pyrrolo[1,2-c]imidazol-5-yl]benzonitrile] | 6.45 |  |  |  |
| N#Cc1ccc(C2(C(=O)N3CCCCC3)CCc3cncn32)c(Cl)c1 (centres unmarked) [3-Chloro-4-[5-(piperidine-1-carbonyl)-6,7-dihydro-5H-pyrrolo[1,2-c]imidazol-5-yl]benzonitrile] | 6.87 | 98% |  |  |
| CCC1(c2ccc(C#N)cc2Cl)CCCCc2cncn21 (centres unmarked) [3-Chloro-(5-ethyl-6,7,8,9-tetrahydro-5H-imidazo[1,5-a]azepin-5-yl)benzonitrile] | 6.66 | 91% |  |  |
| C=C1CC(c2ccc(C#N)cc2F)n2cncc21 (centres unmarked) [3-Fluoro-4-(7-methylene-6,7-dihydro-5H-pyrrolo[1,2-c]imidazol-5-yl)benzonitrile] | 8.40 | 95% |  |  |
| COc1cc(C#N)ccc1C1CCCc2cncn21 (centres unmarked) [3-Methoxy-4-(5,6,7,8-tetrahydro-imidazo[1,5-a]pyridin-5-yl)benzonitrile] | 6.57 | 100% |  |  |
| N#Cc1ccc(C2CCCCc3cncn32)c(-c2cccnc2)c1 (centres unmarked) [3-Pyridin-3-yl-4-(6,7,8,9-tetrahydro-5H-imidazo[1,5-a]azepin-5-yl)benzonitrile] | 7.46 | 97% |  |  |
| C=C1CC2(CCCCc3cncn32)c2ccc(C#N)cc21 (centres unmarked) [3′-Methylene-2′,3′,6,7,8,9-hexahydrospiro[imidazo[1,5-a]azepine-5,1′-indene]-5′-carbonitrile] | 7.96 | 100% |  |  |
| COC(=O)C1(c2ccc(C#N)cc2C(F)(F)F)CCc2cncn21 (centres unmarked) [5-(4-Cyano-2-trifluoromethylphenyl)-6,7-dihydro-5H-pyrrolo[1,2-c]imidazole-5-carboxylic acid methyl ester] | 6.61 |  |  |  |
| CC1(c2ccc(C#N)cc2-c2ccccc2)CCCc2cncn21 (centres unmarked) [6-(5-Methyl-5,6,7,8-tetrahydroimidazo[1,5-a]pyridin-5-yl)biphenyl-3-carbonitrile] | 6.57 |  |  |  |
